Measured values from US20030073837A1, “3-HETEROARYLIDENYL-2-INDOLINONE COMPOUNDS FOR MODULATING PROTEIN KINASE ACTIVITY AND FOR USE IN CANCER CHEMOTHERAPY” (priority 1998, published 2003).

How the values were obtained:
tumor growth = test: Less frequent intraperitoneal dosing studies in athymic mice; type: in vivo; details: for tumor growth inhibition: intraperitoneal
Source text: The ability of human tumors to grow as xenografts in athymic mice (e.g., Balb/c, nu/nu) provides a useful in vivo model for studying the biological response to therapies for human tumors. Since the first successful xenotransplantation of human tumors into athymic mice, (Rygaard and Povlsen, 1969, Acta Pathol. Microbial. Scand. 77:758-760), many different human tumor cell lines (e.g., mammary, lung, genitourinary, gastrointestinal, head and neck, glioblastoma, bone, and malignant melanomas) have been transplanted and successfully grown in nude mice. The following assays may be used to determine the level of activity, specificity and effect of the different compounds of the present invention. Three general types of assays are useful for evaluating compounds: cellular/catalytic, cellular/biological and in vivo. The object of the cellular/catalytic assays is to determine the effect of a compound on the ability of a TK to phosphorylate tyrosines on a known substrate in a cell. The object of the cellular/biological assays is to determine the effect of a compound on the biological response stimulated by a TK in a cell. The object of the in vivo assays is to determine the effect of a compound in an animal model of a particular disorder such as cancer. […]
Cell lines are grown in appropriate medium (for example, MEM, DMEM, Ham's F10, or Ham's F12 plus 5%-10% fetal bovine serum (FBS) and 2 mM glutamine (GLN)). […] All cell lines are routinely subcultured twice a week and are negative for mycoplasma as determined by the Mycotect method (Gibco).
Cells are harvested at or near confluency with 0.05% Trypsin-EDTA and pelleted at 450×g for 10 min. […] Tumor growth is measured over 3 to 6 weeks using venier calipers. Tumor volumes are calculated as a product of length×width×height unless otherwise indicated. P values are calculated using the Students t-test. […]

[1] = Subchronic toxicokinetic study (28 day toxicity study), dogs; type: in vivo
FLK-1 receptor = test: Cellular-based assay of receptor phosphorylation following VEGF (FLK-1 ELISA); type: cell-based

Cc1cc(C)c(/C=C2\C(=O)Nc3ccccc32)[nH]1 [3-[(2,4-dimethylpyrrol-5-yl)methylidenyl]-2-indolinone]
tumor growth inhibition and toxicity with interval dosing (tumor growth; dosing at 3 to 4 day intervals): sufficient to inhibit tumor growth without toxicity
tumor growth inhibition (tumor growth; daily dosing): 68%
tumor growth inhibition (tumor growth; twice weekly dosing for four weeks): 77%
accumulation in plasma upon repeated administration [1]: did not accumulate in plasma
receptor phosphorylation that follows the interaction of VEGF with its receptor (FLK-1 receptor): inhibit the receptor phosphorylation
